Reference: patent US4479951A, “1.4;3.6-Dianhydrohexitol nitrates substituted by purine bases, processes for their preparation and pharmaceutical compositions” (Dr. Willmar Schwabe GmbH & Co., priority 1980, dated 1984)

System: mongrel dogs
Experiment: circulatory-pharmacological effectiveness on the narcotised dog, intravenous administration
Format: in vivo

Nc1ncnc2c1ncn2[C@H]1CO[C@H]2[C@@H]1OC[C@@H]2O[N+](=O)[O-] [1c/2c, 5-(9-Adenyl)-5-desoxy-1.4;3.6-dianhydro-L-iditol 2-nitrate]
APdiast: diastolic aorta pressure (2 min after i.v. 1 mg/kg): 74.1 mm.Hg | APsyst: systolic aorta pressure (2 min after i.v. 1 mg/kg): 115.3 mm.Hg | BFFem: blood flow in the A. femoralis, referred to 20 kg. body weight (2 min after i.v. 1 mg/kg): 35.3 mL/min | HF: heart frequency (2 min after i.v. 1 mg/kg): 158.7 min⁻¹ | HLL: heart capacity left, referred to 20 kg. body weight (2 min after i.v. 1 mg/kg): 0.75 W | HLR: heart capacity right, referred to 20 kg. body weight (2 min after i.v. 1 mg/kg): 115.8 mW | HZV: heart minute volume, referred to 20 kg. body weight (2 min after i.v. 1 mg/kg): 3.91 L/min | LVEDP: end diastolic pressure in the left ventricle (2 min after i.v. 1 mg/kg): 2.62 mm.Hg | PAP: average pressure in the A. pulmonalis (2 min after i.v. 1 mg/kg): 15.6 ±2.1 mm.Hg | PRA: pressure in the right atrium (2 min after i.v. 1 mg/kg): 2.06 mm.Hg | SV: beat volume, referred to 20 kg. body weight (2 min after i.v. 1 mg/kg): 25.6 mL | WAP: pulmonalis resistance, referred to 20 kg. body weight (2 min after i.v. 1 mg/kg): 0.45 U | WFem: femoralis resistance, referred to 20 kg. body weight (2 min after i.v. 1 mg/kg): 0.35 KU | WTP: total peripheral resistance, referred to 20 kg. body weight (2 min after i.v. 1 mg/kg): 2.93 U | dp/dt: rate of pressure increase in the left ventricle (2 min after i.v. 1 mg/kg): 2606.2 mm.Hg/sec. | APdiast: diastolic aorta pressure (5 min after i.v. 1 mg/kg): 82.5 mm.Hg | APsyst: systolic aorta pressure (5 min after i.v. 1 mg/kg): 120.9 mm.Hg | BFFem: blood flow in the A. femoralis, referred to 20 kg. body weight (5 min after i.v. 1 mg/kg): 36.6 mL/min | HF: heart frequency (5 min after i.v. 1 mg/kg): 148.7 min⁻¹ | HLL: heart capacity left, referred to 20 kg. body weight (5 min after i.v. 1 mg/kg): 0.74 W | HLR: heart capacity right, referred to 20 kg. body weight (5 min after i.v. 1 mg/kg): 87.6 mW | HZV: heart minute volume, referred to 20 kg. body weight (5 min after i.v. 1 mg/kg): 3.61 L/min | LVEDP: end diastolic pressure in the left ventricle (5 min after i.v. 1 mg/kg): 2.91 mm.Hg | PAP: average pressure in the A. pulmonalis (5 min after i.v. 1 mg/kg): 13.7 ±1.4 mm.Hg | PRA: pressure in the right atrium (5 min after i.v. 1 mg/kg): 2.81 mm.Hg | SV: beat volume, referred to 20 kg. body weight (5 min after i.v. 1 mg/kg): 26.0 mL | WAP: pulmonalis resistance, referred to 20 kg. body weight (5 min after i.v. 1 mg/kg): 0.40 U | WFem: femoralis resistance, referred to 20 kg. body weight (5 min after i.v. 1 mg/kg): 0.36 KU | WTP: total peripheral resistance, referred to 20 kg. body weight (5 min after i.v. 1 mg/kg): 3.42 U | dp/dt: rate of pressure increase in the left ventricle (5 min after i.v. 1 mg/kg): 2343.7 mm.Hg/sec. | APdiast: diastolic aorta pressure (7 min after i.v. 1 mg/kg): 83.4 mm.Hg | APsyst: systolic aorta pressure (7 min after i.v. 1 mg/kg): 121.9 mm.Hg | BFFem: blood flow in the A. femoralis, referred to 20 kg. body weight (7 min after i.v. 1 mg/kg): 38.6 mL/min | HF: heart frequency (7 min after i.v. 1 mg/kg): 146.7 min⁻¹ | HLL: heart capacity left, referred to 20 kg. body weight (7 min after i.v. 1 mg/kg): 0.72 W | HLR: heart capacity right, referred to 20 kg. body weight (7 min after i.v. 1 mg/kg): 89.3 mW | HZV: heart minute volume, referred to 20 kg. body weight (7 min after i.v. 1 mg/kg): 3.51 L/min | LVEDP: end diastolic pressure in the left ventricle (7 min after i.v. 1 mg/kg): 2.91 mm.Hg | PAP: average pressure in the A. pulmonalis (7 min after i.v. 1 mg/kg): 14.1 ±1.6 mm.Hg | PRA: pressure in the right atrium (7 min after i.v. 1 mg/kg): 2.81 mm.Hg | SV: beat volume, referred to 20 kg. body weight (7 min after i.v. 1 mg/kg): 25.6 mL | WAP: pulmonalis resistance, referred to 20 kg. body weight (7 min after i.v. 1 mg/kg): 0.42 U | WFem: femoralis resistance, referred to 20 kg. body weight (7 min after i.v. 1 mg/kg): 0.34 KU | WTP: total peripheral resistance, referred to 20 kg. body weight (7 min after i.v. 1 mg/kg): 3.59 U | dp/dt: rate of pressure increase in the left ventricle (7 min after i.v. 1 mg/kg): 2362.5 mm.Hg/sec. | APdiast: diastolic aorta pressure (10 min after i.v. 1 mg/kg): 83.4 mm.Hg | APsyst: systolic aorta pressure (10 min after i.v. 1 mg/kg): 120.9 mm.Hg | BFFem: blood flow in the A. femoralis, referred to 20 kg. body weight (10 min after i.v. 1 mg/kg): 39.5 mL/min | HF: heart frequency (10 min after i.v. 1 mg/kg): 141.2 min⁻¹ | HLL: heart capacity left, referred to 20 kg. body weight (10 min after i.v. 1 mg/kg): 0.72 W | HLR: heart capacity right, referred to 20 kg. body weight (10 min after i.v. 1 mg/kg): 88.8 mW | HZV: heart minute volume, referred to 20 kg. body weight (10 min after i.v. 1 mg/kg): 3.5 L/min | LVEDP: end diastolic pressure in the left ventricle (10 min after i.v. 1 mg/kg): 3.20 mm.Hg | PAP: average pressure in the A. pulmonalis (10 min after i.v. 1 mg/kg): 14.2 ±1.6 mm.Hg | PRA: pressure in the right atrium (10 min after i.v. 1 mg/kg): 2.95 mm.Hg | SV: beat volume, referred to 20 kg. body weight (10 min after i.v. 1 mg/kg): 26.4 mL | WAP: pulmonalis resistance, referred to 20 kg. body weight (10 min after i.v. 1 mg/kg): 0.42 U | WFem: femoralis resistance, referred to 20 kg. body weight (10 min after i.v. 1 mg/kg): 0.33 KU | WTP: total peripheral resistance, referred to 20 kg. body weight (10 min after i.v. 1 mg/kg): 3.57 U | dp/dt: rate of pressure increase in the left ventricle (10 min after i.v. 1 mg/kg): 2268.7 mm.Hg/sec. | APdiast: diastolic aorta pressure (15 min after i.v. 1 mg/kg): 80.6 mm.Hg | APsyst: systolic aorta pressure (15 min after i.v. 1 mg/kg): 120.4 mm.Hg | BFFem: blood flow in the A. femoralis, referred to 20 kg. body weight (15 min after i.v. 1 mg/kg): 39.9 mL/min | HF: heart frequency (15 min after i.v. 1 mg/kg): 133.0 min⁻¹ | HLL: heart capacity left, referred to 20 kg. body weight (15 min after i.v. 1 mg/kg): 0.72 W | HLR: heart capacity right, referred to 20 kg. body weight (15 min after i.v. 1 mg/kg): 87.3 mW | HZV: heart minute volume, referred to 20 kg. body weight (15 min after i.v. 1 mg/kg): 3.61 L/min | LVEDP: end diastolic pressure in the left ventricle (15 min after i.v. 1 mg/kg): 3.37 mm.Hg | PAP: average pressure in the A. pulmonalis (15 min after i.v. 1 mg/kg): 14.0 ±1.9 mm.Hg | PRA: pressure in the right atrium (15 min after i.v. 1 mg/kg): 3.24 mm.Hg | SV: beat volume, referred to 20 kg. body weight (15 min after i.v. 1 mg/kg): 29.3 mL | WAP: pulmonalis resistance, referred to 20 kg. body weight (15 min after i.v. 1 mg/kg): 0.40 U | WFem: femoralis resistance, referred to 20 kg. body weight (15 min after i.v. 1 mg/kg): 0.32 KU | WTP: total peripheral resistance, referred to 20 kg. body weight (15 min after i.v. 1 mg/kg): 3.41 U | dp/dt: rate of pressure increase in the left ventricle (15 min after i.v. 1 mg/kg): 2250.0 mm.Hg/sec. | APdiast: diastolic aorta pressure (20 min after i.v. 1 mg/kg): 79.1 mm.Hg | APsyst: systolic aorta pressure (20 min after i.v. 1 mg/kg): 121.5 mm.Hg | BFFem: blood flow in the A. femoralis, referred to 20 kg. body weight (20 min after i.v. 1 mg/kg): 41.2 mL/min | HF: heart frequency (20 min after i.v. 1 mg/kg): 129.7 min⁻¹ | HLL: heart capacity left, referred to 20 kg. body weight (20 min after i.v. 1 mg/kg): 0.72 W | HLR: heart capacity right, referred to 20 kg. body weight (20 min after i.v. 1 mg/kg): 87.7 mW | HZV: heart minute volume, referred to 20 kg. body weight (20 min after i.v. 1 mg/kg): 3.66 L/min | LVEDP: end diastolic pressure in the left ventricle (20 min after i.v. 1 mg/kg): 3.56 mm.Hg | PAP: average pressure in the A. pulmonalis (20 min after i.v. 1 mg/kg): 13.8 ±1.7 mm.Hg | PRA: pressure in the right atrium (20 min after i.v. 1 mg/kg): 3.30 mm.Hg | SV: beat volume, referred to 20 kg. body weight (20 min after i.v. 1 mg/kg): 30.0 mL | WAP: pulmonalis resistance, referred to 20 kg. body weight (20 min after i.v. 1 mg/kg): 0.37 U | WFem: femoralis resistance, referred to 20 kg. body weight (20 min after i.v. 1 mg/kg): 0.31 KU | WTP: total peripheral resistance, referred to 20 kg. body weight (20 min after i.v. 1 mg/kg): 3.32 U | dp/dt: rate of pressure increase in the left ventricle (20 min after i.v. 1 mg/kg): 2231.2 mm.Hg/sec. | APdiast: diastolic aorta pressure (25 min after i.v. 1 mg/kg): 80.6 mm.Hg | APsyst: systolic aorta pressure (25 min after i.v. 1 mg/kg): 122.8 mm.Hg | BFFem: blood flow in the A. femoralis, referred to 20 kg. body weight (25 min after i.v. 1 mg/kg): 42.2 mL/min | HF: heart frequency (25 min after i.v. 1 mg/kg): 125.7 min⁻¹ | HLL: heart capacity left, referred to 20 kg. body weight (25 min after i.v. 1 mg/kg): 0.74 W | HLR: heart capacity right, referred to 20 kg. body weight (25 min after i.v. 1 mg/kg): 90.0 mW | HZV: heart minute volume, referred to 20 kg. body weight (25 min after i.v. 1 mg/kg): 3.7 L/min | LVEDP: end diastolic pressure in the left ventricle (25 min after i.v. 1 mg/kg): 4.03 mm.Hg | PAP: average pressure in the A. pulmonalis (25 min after i.v. 1 mg/kg): 14.0 ±1.8 mm.Hg | PRA: pressure in the right atrium (25 min after i.v. 1 mg/kg): 3.28 mm.Hg | SV: beat volume, referred to 20 kg. body weight (25 min after i.v. 1 mg/kg): 31.3 mL | WAP: pulmonalis resistance, referred to 20 kg. body weight (25 min after i.v. 1 mg/kg): 0.36 U | WFem: femoralis resistance, referred to 20 kg. body weight (25 min after i.v. 1 mg/kg): 0.31 KU | WTP: total peripheral resistance, referred to 20 kg. body weight (25 min after i.v. 1 mg/kg): 3.33 U | dp/dt: rate of pressure increase in the left ventricle (25 min after i.v. 1 mg/kg): 2175.0 mm.Hg/sec. | APdiast: diastolic aorta pressure (30 min after i.v. 1 mg/kg): 79.7 mm.Hg | APsyst: systolic aorta pressure (30 min after i.v. 1 mg/kg): 122.8 mm.Hg | BFFem: blood flow in the A. femoralis, referred to 20 kg. body weight (30 min after i.v. 1 mg/kg): 43.9 mL/min | HF: heart frequency (30 min after i.v. 1 mg/kg): 122.7 min⁻¹ | HLL: heart capacity left, referred to 20 kg. body weight (30 min after i.v. 1 mg/kg): 0.73 W | HLR: heart capacity right, referred to 20 kg. body weight (30 min after i.v. 1 mg/kg): 84.9 mW | HZV: heart minute volume, referred to 20 kg. body weight (30 min after i.v. 1 mg/kg): 3.63 L/min | LVEDP: end diastolic pressure in the left ventricle (30 min after i.v. 1 mg/kg): 4.31 mm.Hg | PAP: average pressure in the A. pulmonalis (30 min after i.v. 1 mg/kg): 14.1 ±1.8 mm.Hg | PRA: pressure in the right atrium (30 min after i.v. 1 mg/kg): 3.52 mm.Hg | SV: beat volume, referred to 20 kg. body weight (30 min after i.v. 1 mg/kg): 31.6 mL | WAP: pulmonalis resistance, referred to 20 kg. body weight (30 min after i.v. 1 mg/kg): 0.36 U | WFem: femoralis resistance, referred to 20 kg. body weight (30 min after i.v. 1 mg/kg): 0.29 KU | WTP: total peripheral resistance, referred to 20 kg. body weight (30 min after i.v. 1 mg/kg): 3.32 U | dp/dt: rate of pressure increase in the left ventricle (30 min after i.v. 1 mg/kg): 2184.4 mm.Hg/sec.
